# From ChEMBL document CHEMBL1201862, “PubChem BioAssay data set” (2004)
# Active and inactive are the calls of the source.
# Experiments:
# Fatty acid synthase [1] = molecular target: T1, Fatty acid synthase (Homo sapiens, UniProt P49327); assay: inhibition of human FAS-TE enzyme activity – biochemical, endpoint fluorescence intensity, uHTS hits, dose response (AID 624327); format: functional;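 also: fluorescence from hydrolysis of an O-methyl fluorescein acyl ester substrate by the enzyme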
# Fatty acid synthase [2] = molecular target: T1, Fatty acid synthase; assay: inhibition of human FAS-TE enzyme activity – biochemical, kinetic fluorescence intensity, dose response (AID 624326); format: functional;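 also: rate of fluorescence rise from hydrolysis of a fluorogenic O-methyl fluorescein ester substrate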
# [3] = molecular target: T2, Ubiquitin-conjugating enzyme E2 N (Homo sapiens, UniProt P61088); format: functional;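 also: Dose-response confirmation in a TR-FRET assay detecting UBC13-driven polyubiquitin chain formation, inhibition measured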
# T2 sequence (P61088 whole entry): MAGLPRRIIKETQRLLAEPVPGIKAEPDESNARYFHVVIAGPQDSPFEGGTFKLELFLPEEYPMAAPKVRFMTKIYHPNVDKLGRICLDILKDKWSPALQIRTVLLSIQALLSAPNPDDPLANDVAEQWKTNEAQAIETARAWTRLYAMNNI
# Protein skinhead-1 = molecular target: T3, Protein skinhead-1 (Caenorhabditis elegans, UniProt P34707); format: functional
# T3 sequence (P34707 whole entry): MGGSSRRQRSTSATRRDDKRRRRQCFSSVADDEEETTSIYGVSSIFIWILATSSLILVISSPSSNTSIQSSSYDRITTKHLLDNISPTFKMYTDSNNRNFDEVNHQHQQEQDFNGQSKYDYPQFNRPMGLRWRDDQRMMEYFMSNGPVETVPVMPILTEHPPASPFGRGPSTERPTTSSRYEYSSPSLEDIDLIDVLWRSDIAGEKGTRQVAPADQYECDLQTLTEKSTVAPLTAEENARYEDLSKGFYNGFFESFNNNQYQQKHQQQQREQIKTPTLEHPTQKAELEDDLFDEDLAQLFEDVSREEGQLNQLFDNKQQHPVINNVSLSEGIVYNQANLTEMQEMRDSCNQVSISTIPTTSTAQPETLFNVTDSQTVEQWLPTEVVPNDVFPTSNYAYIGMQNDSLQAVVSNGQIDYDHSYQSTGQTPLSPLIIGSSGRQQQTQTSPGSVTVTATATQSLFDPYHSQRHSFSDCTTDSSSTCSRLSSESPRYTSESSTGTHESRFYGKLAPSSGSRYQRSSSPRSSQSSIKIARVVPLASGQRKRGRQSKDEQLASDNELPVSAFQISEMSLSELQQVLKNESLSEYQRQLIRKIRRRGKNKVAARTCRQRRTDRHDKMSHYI
# [4] = intracellular Trypanosoma cruzi inhibitors in host cells – cell-based, plate reader, cherry-pick samples, set 3, dose response (AID 651818); format: functional;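 also: compounds incubated with infected cells for about four days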
# Large T antigen = Large T antigen (Simian virus 40, UniProt P03070); format: functional, Betapolyomavirus macacae;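 also: Confirmatory-stage PubChem screen for compounds that inhibit SV40 T antigen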
# Large T antigen, sequence (P03070 whole entry): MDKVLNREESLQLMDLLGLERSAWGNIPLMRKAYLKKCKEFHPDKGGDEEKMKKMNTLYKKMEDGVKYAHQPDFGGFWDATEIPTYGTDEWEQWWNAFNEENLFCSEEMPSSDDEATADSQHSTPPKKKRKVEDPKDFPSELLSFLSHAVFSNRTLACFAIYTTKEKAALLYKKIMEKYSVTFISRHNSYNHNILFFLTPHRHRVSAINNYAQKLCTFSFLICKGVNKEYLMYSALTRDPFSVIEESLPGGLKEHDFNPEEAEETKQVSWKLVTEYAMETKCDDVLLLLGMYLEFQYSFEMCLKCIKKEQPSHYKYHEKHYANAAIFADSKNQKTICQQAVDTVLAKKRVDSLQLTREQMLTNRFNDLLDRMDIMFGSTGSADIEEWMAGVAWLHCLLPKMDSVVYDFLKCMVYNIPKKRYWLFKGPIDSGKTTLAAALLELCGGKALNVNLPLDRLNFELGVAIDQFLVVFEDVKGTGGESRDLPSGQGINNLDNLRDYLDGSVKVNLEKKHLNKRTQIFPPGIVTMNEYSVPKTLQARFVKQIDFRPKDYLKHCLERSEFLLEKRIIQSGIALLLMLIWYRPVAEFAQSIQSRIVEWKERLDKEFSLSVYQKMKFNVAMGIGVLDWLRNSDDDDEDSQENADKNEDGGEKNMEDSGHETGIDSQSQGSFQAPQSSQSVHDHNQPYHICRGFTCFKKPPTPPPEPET
# cells = format: functional
# [5] = non-specific 3'UTR reporter inhibition in Clone20-Shn3RL – cell-based, Renilla luciferase, cherry-picked, counter-screen for Shn3 inhibitor project, dose response (AID 624133); format: functional
# [6] = reduction of Shn3 3'UTR-driven luciferase in osteoblasts – cell-based, Clone20 osteoblasts, firefly luciferase, cherry-picked, dose response (AID 624132); format: functional;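 also: firefly luciferase luminescence from reporter carrying the Shn3 3'UTR in osteoblasts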
# [7] = molecular target: T4, Rac GTPase-activating protein 1 (Homo sapiens, UniProt Q9H0H5); assay: blockers of MgcRacGAP-driven Rac1 GTP hydrolysis – biochemical, ADP Hunter fluorescence, primary and confirmatory, confirmation (AID 624330); format: functional
# T4 sequence (Q9H0H5 whole entry): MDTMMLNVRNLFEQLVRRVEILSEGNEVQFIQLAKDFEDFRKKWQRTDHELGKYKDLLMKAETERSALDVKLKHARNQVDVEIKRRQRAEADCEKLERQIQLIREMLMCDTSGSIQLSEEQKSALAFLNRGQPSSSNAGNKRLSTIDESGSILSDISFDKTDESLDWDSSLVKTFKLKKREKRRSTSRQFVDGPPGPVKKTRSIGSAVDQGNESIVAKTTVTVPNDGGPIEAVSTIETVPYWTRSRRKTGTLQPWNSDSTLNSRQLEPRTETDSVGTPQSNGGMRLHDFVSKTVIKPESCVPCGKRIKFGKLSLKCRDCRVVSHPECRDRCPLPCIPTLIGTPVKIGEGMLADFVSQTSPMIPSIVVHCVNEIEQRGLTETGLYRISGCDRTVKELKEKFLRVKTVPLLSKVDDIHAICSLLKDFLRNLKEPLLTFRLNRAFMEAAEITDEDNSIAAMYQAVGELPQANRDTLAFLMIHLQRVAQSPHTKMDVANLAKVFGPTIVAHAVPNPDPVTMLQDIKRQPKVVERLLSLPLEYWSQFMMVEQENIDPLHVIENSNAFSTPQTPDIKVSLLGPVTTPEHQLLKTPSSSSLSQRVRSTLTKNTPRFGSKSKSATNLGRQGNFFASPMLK
# [8] = P. falciparum Dd2 growth inhibitors, dose response, SYBR Green, cherry-picked samples (AID 1159567); format: functional, cell-based
# H4 = assay: Luminescence Cell-Based Dose Response HTS to Identify Activators of 5'UTR Stem-Loop Driven Prion Protein mRNA Translation in H4 Neuroglioblastoma Cells. [Related pubchem assays: 1829 (Project Summary), 1814 (Primary HTS)]; format: functional; conditions: Homo sapiens
# [9] = Luminescence Cell-Based Dose Confirmation HTS to Identify Activators of 5'UTR Stem-Loop Driven Alpha-Synuclein mRNA Translation in H4 Neuroglioblastoma Cells. [Related pubchem assays: 1829 (Project Summary), 1814 (Primary HTS)]; format: functional
# [10] = Luminescence Cell-Based Dose Response HTS to Identify Activators of Luciferase Translation or Activity in H4 […] Cells. [Related pubchem assays: 1829 (Project Summary), 1814 (Primary HTS)]; format: functional
# [11] = Trypanosoma cruzi growth suppression in host cells – NIH3T3 host cells, beta-gal luminescence, confirmation (AID 2044); format: functional, cell-based;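 also: intracellular parasites grown in NIH/3T3 mouse fibroblasts as host cells; luminescent beta-galactosidase reporter signal from transgenic T. cruzi replicating inside host cells; inhibitors lower the luminescence signal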
# [12] = NIH3T3 cell viability loss – ATP luminescence, mouse fibroblasts, counter-screen, dose response (AID 2010); format: functional, cell-based;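 also: cells exposed to compound for about 90 hours before reading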
# [13] = molecular target: T5, Carboxy-terminal domain RNA polymerase II polypeptide A small phosphatase 1 (Homo sapiens, UniProt Q9GZU7); assay: CTDSP1 inhibitors, concentration-response, biochemical, absorbance readout, ultra-high-throughput screen actives (AID 540297); format: functional
# T5 sequence (Q9GZU7 whole entry): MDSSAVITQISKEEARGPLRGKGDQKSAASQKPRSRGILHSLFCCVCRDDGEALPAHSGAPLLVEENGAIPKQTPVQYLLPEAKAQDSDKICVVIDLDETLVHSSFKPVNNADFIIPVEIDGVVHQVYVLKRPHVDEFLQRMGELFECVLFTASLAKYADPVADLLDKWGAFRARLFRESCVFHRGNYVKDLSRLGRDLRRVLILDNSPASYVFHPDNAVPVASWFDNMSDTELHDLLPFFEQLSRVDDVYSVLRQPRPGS
# [14] = molecular target: T6, Zinc finger protein mex-5 (Caenorhabditis elegans, UniProt Q9XUB2); assay: potency of MEX-5 RNA-binding blockers – biochemical, C. elegans, fluorescence polarization, dose response (AID 1960)
# T6 sequence (Q9XUB2 whole entry): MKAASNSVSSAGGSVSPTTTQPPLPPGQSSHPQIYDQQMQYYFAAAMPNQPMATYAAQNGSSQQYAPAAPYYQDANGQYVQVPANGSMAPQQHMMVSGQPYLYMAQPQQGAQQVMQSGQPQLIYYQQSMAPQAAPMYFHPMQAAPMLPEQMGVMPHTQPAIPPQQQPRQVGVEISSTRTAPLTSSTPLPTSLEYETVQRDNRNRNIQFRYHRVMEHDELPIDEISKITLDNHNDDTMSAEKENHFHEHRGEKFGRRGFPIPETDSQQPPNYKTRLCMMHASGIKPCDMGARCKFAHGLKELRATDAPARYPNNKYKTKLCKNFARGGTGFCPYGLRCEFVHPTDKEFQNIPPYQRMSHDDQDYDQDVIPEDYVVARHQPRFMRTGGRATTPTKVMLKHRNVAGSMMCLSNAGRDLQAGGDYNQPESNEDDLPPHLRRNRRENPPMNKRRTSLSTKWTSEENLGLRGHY
# [15] = molecular target: T7, Corticotropin-releasing factor receptor 2/Corticotropin-releasing factor-binding protein (Homo sapiens, UniProt P24387+Q13324); assay: activators of CRF receptor 2 with binding protein – uHTS hits, confirmation (AID 602473); format: functional; conditions: read-out: EC50_Mean
# T7 sequence (Q13324 whole entry): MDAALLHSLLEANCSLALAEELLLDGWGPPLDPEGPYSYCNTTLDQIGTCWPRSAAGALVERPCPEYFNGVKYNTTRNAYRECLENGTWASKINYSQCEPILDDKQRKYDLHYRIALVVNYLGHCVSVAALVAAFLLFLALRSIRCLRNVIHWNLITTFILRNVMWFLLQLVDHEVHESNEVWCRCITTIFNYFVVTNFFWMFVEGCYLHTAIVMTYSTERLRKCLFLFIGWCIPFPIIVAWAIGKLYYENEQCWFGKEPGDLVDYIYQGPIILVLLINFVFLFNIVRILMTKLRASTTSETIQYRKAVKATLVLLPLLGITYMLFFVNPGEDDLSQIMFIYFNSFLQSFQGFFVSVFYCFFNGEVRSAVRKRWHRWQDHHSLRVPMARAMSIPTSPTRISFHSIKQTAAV
# T7 sequence (P24387 whole entry): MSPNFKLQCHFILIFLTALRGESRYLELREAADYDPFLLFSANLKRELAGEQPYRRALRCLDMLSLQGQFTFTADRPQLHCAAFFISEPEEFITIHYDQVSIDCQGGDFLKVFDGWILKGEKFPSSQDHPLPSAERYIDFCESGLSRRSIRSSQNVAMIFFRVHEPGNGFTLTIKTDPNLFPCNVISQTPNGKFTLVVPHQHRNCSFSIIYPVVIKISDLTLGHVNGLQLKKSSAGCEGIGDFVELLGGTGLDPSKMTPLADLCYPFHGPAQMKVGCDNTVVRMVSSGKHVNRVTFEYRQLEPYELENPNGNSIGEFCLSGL
# T1 sequence (P49327 whole entry): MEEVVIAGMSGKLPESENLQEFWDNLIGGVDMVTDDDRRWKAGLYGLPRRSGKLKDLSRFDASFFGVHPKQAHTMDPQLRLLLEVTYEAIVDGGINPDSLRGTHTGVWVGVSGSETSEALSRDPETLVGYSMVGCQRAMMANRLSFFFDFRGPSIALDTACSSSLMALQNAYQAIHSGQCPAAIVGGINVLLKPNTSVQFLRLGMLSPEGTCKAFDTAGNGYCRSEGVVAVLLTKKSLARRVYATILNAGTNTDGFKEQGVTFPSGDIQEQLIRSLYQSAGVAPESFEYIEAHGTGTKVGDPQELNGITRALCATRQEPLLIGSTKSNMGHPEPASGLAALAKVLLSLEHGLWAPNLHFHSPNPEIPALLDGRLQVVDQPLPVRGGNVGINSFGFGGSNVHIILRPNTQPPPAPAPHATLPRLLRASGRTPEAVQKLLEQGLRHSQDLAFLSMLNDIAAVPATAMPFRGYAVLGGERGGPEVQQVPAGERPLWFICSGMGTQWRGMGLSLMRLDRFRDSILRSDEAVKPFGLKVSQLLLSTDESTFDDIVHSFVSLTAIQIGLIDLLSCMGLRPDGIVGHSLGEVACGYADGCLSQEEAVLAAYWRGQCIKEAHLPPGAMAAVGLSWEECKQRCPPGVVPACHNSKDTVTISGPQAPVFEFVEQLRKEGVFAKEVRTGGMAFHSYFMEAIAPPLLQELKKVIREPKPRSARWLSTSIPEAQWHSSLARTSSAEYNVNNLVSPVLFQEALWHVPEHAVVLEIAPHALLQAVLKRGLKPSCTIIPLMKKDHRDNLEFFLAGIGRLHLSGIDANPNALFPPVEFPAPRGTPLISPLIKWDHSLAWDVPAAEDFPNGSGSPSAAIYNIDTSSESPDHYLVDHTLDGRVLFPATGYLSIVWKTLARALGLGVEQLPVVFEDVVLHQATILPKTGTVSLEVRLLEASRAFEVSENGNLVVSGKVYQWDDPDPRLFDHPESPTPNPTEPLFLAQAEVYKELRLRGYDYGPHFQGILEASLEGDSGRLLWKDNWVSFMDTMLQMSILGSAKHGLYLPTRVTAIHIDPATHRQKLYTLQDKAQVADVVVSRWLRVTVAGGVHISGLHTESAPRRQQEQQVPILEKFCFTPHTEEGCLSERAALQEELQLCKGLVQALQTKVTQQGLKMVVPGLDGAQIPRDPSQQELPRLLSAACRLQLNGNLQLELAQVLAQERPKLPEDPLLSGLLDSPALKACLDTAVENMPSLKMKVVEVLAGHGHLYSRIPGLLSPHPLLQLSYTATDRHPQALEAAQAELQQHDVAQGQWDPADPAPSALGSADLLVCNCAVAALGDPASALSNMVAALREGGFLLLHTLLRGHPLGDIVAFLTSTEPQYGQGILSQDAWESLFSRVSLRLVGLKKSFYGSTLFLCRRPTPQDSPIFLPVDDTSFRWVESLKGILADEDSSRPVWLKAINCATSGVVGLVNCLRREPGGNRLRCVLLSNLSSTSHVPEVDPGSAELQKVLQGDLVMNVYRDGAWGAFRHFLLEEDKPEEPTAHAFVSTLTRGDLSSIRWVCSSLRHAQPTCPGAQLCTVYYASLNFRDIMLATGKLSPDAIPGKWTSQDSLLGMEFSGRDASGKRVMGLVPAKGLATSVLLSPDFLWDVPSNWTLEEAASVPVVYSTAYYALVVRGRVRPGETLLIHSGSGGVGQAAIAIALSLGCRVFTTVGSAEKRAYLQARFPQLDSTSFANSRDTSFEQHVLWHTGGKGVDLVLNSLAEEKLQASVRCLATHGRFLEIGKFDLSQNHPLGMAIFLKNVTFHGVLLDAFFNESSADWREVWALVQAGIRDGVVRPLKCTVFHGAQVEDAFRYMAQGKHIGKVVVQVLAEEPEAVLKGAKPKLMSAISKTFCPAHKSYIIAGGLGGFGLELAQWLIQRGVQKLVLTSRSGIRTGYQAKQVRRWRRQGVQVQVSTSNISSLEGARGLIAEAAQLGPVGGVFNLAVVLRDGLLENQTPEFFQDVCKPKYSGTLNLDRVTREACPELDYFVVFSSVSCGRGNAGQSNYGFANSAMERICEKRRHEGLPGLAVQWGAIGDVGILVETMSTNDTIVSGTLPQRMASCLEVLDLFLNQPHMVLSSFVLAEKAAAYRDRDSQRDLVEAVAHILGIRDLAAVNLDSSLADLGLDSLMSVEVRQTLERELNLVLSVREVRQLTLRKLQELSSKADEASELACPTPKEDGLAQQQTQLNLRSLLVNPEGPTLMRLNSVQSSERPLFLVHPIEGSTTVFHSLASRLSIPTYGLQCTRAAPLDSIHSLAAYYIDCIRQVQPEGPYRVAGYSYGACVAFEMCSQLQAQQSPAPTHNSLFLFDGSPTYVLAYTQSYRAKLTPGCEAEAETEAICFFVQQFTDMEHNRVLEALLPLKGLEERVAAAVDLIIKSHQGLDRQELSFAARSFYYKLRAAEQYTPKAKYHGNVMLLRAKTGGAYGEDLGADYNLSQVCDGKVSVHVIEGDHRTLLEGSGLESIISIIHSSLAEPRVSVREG
smiles,measurement,setting,value
Cc1cccc(N2CCN(C(=O)COc3ccc4ccc(=O)oc4c3)CC2)c1C,IC50,Fatty acid synthase [1],3.84 µM (active)
same,IC50,Fatty acid synthase [2],5.23 µM (active)
C=CCn1c(SCC(=O)N(CC)C2CCS(=O)(=O)C2)nnc1-c1ccccc1 (configuration not stated),IC50,[3],> 20 µM (inactive)
CCCNC(=O)c1ccc2snnc2c1,IC50,Protein skinhead-1,> 100 µM (inactive)
Cc1ccc(N2C(=O)NC(=O)/C(=C/Nc3ccc(S(=O)(=O)N(C)C)cc3)C2=O)cc1,IC50,Protein skinhead-1,> 100 µM (inactive)
COc1ccc(/C=C(\NC(=O)c2ccc([N+](=O)[O-])cc2)C(=O)N2CCOCC2)cc1,IC50,Fatty acid synthase [1],1.34 µM (active)
same,IC50,Fatty acid synthase [2],0.848 µM (active)
C[C@H]1CN([C@@H](C)CO)C(=O)Cc2cc(NC(=O)Nc3ccc(C(F)(F)F)cc3)ccc2O[C@H]1CN(C)Cc1ccc(C(=O)Nc2ccccc2N)cc1,AC50,[4],2.13 µM (active)
Cc1cc(C(=O)Nc2cccc3c2O[C@@H](CN(C)Cc2ccc(-c4ccccc4)cc2)[C@@H](C)CN([C@H](C)CO)C3=O)n(C)n1,AC50,[4],5.16 µM (active)
C[C@H]1CN([C@@H](C)CO)C(=O)c2cc(NS(=O)(=O)c3ccc(Cl)cc3)ccc2O[C@H]1CN(C)Cc1ccc(C(=O)Nc2ccccc2N)cc1,AC50,[4],1.96 µM (active)
O=c1nc2n(c(O)c1C(c1c(O)nc3n(c1=O)CCS3)c1cccc3ccccc13)CCS2 (configuration not stated),IC50,Large T antigen,> 100 µM (active)
Cc1cc(OCc2cccc(Cl)c2)c(C)cc1CN1CCOCC1,IC50,Protein skinhead-1,6.33 µM (active)
C[C@H](CO)N1C[C@H](C)[C@@H](CN(C)Cc2ccc(C(=O)Nc3ccccc3N)cc2)Oc2c(NS(=O)(=O)c3ccc(Cl)cc3)cccc2C1=O,AC50,[4],1.41 µM (active)
CCOCC(=O)Nc1ccc(C)c(Cl)c1,IC50,Protein skinhead-1,> 100 µM (inactive)
same,IC50,cells,37.1 µM (active)
CCNC(=O)C1(C)CCCN1C(=O)c1ccc(C#N)cc1 (configuration not stated),IC50,Protein skinhead-1,> 100 µM (inactive)
Cc1ccc(C(=O)Nc2nc(-c3ccc(F)cc3)cs2)o1,IC50,Protein skinhead-1,> 100 µM (inactive)
Cc1ccccc1NC(=O)c1cc(N)ccc1N1CCCCC1,IC50,Large T antigen,18.9 µM (active)
Fc1ccc(-c2nc3ccc(Br)cn3c2Cc2ccccc2C(F)(F)F)cc1,IC50,Protein skinhead-1,> 100 µM (inactive)
N#CC1=C2SCN(c3ccccc3)CN2C(=O)CC1c1ccccc1Cl (configuration not stated),IC50,Large T antigen,36.3 µM (active)
C[C@H]1CN([C@@H](C)CO)C(=O)c2cccc(NC(=O)CCCCCC(=O)Nc3ccccc3N)c2O[C@@H]1CN(C)Cc1ccc(-c2ccccc2)cc1,AC50,[4],1.71 µM (active)
COc1ccc(OC)c(C(c2nnnn2Cc2ccccc2)N2CCN(C3CCCCC3)CC2)c1 (configuration not stated),AC50,[5],30.4 µM (active)
same,AC50,[6],> 70 µM (inactive)
COc1ccccc1NC(=O)Oc1ccc(NC(=O)c2ccco2)cc1,IC50,Large T antigen,22.9 µM (active)
COc1cc(/C=N\NC(=O)C2CC3C=CC2C3)ccc1O (configuration not stated),IC50,Large T antigen,13.3 µM (active)
same,IC50,[7],23.4 µM (active)
NC1=NC[C@H](c2ccccc2)N1CCc1cc(C(F)(F)F)cc(C(F)(F)F)c1,IC50,[3],> 20 µM (inactive)
C[C@H]1CN([C@@H](C)CO)C(=O)c2cc(NC(=O)Nc3cccc4ccccc34)ccc2O[C@@H]1CN(C)Cc1ccc(Oc2ccccc2)cc1,AC50,[8],7.39 µM (active)
same,AC50,[4],4.66 µM (active)
Cc1ccc(NC(=O)c2cnn(-c3ccccc3)c2C)c(C)c1,EC50,H4,> 120 µM (not active)
same,EC50,[9],0.463 µM (active)
same,EC50,[10],37.9 µM (active)
c1ccc(-c2ccc(OCCCNC3CCCC3)cc2)cc1,EC50,[11],1.03 µM (active)
same,IC50,Protein skinhead-1,20.8 µM (active)
same,EC50,[12],> 60 µM (not active)
COc1ccc(CN(C)C[C@@H]2Oc3c(NC(=O)Nc4ccc(C(F)(F)F)cc4)cccc3C(=O)N([C@H](C)CO)C[C@@H]2C)cc1,AC50,[4],1.42 µM (active)
O=C(CCCCCN1C(=O)c2cccc3cccc(c23)C1=O)NCc1ccco1,IC50,[3],> 20 µM (inactive)
O=C(CCn1c(=S)[nH]c2ccccc2c1=O)NCCCN1CCCC1=O,IC50,Protein skinhead-1,> 100 µM (inactive)
COc1ccccc1C(=O)Nc1c2c(nn1-c1cccc(C)c1C)CS(=O)(=O)C2,IC50,[3],> 20 µM (inactive)
same,IC50,[13],10.1 µM (active)
O=C1NC(=O)N(c2ccc(F)cc2)C(=O)/C1=C/c1c[nH]c2ccccc12,EC50,[14],> 300 µM (inconclusive)
same,EC50,[15],10.3 µM (active)
